# Publication PMC11982498 (Redox Biology, 2025)
# Tests used:
# [1] = test system: HK-2 cells; assay: MTT cytotoxicity assay, HK-2; assay type: cell-based; conditions: Homo sapiens, incubation for 48 h
# Method: SH-SY5Y cells, HepG2 cells, HK-2 cells and HT-22 cells were seeded on 96-well plates (5.0×10^3 per well) with 100 μL of culture medium, and incubated for 12 h at 37 °C in a humidified atmosphere with 5% CO2, and then exposed to various concentrations of B14. After 48 h of treatment at 37 °C in a humidified atmosphere with 5% CO2, 100 μL of 0.5 mg/mL MTT solution was added to each well, and the mixture was further incubated for 4 h. The cells in each well were then treated with DMSO (200 μL for each well), and the culture medium was siphoned off, and the absorbance was recorded at 570 nm. All drug doses were parallel tested in triplicate, and the cytotoxicity was evaluated based on the percentage of cell survival in a dose-dependent manner regarding the negative control. The final IC50 values were determined by using Graph Pad Prism 9.0.
# [2] = molecular target: BCL-2 gene promoter i-motif; assay: SPR binding to BCL-2 promoter i-motif; conditions: MES buffer pH 5.5, 25 °C
# Method: SPR measurement was performed on a ProteOn XPR36 protein interaction array system (Bio-Rad Laboratories, Hercules, California, USA) using a Neutravidin-coated GLH sensor chip. BCL-2 i-motif binding analysis was performed following a published method without significant modification. For immobilization, 5′-biotin-labeled DNA oligomers at 800 nM annealed in 1 × MES buffer at pH 5.5 by heating at 95 °C for 5 min, were attached to a reptavidin-coated sensor chip. Compounds were prepared through serial dilution with flowing buffer (20 mM MES, 100 mM KCl, pH 5.5 for i-motif) in at least 6 concentrations, which were simultaneously injected at a flow rate of […] for a 120 s of association phase, followed by 250 s of dissociation phase at 25 °C. Langmuir model was used for fitting kinetic data, which was analyzed with ProteOn manager software. KD values were determined through equation KD = kd/ka. Compound A22 was used as a positive control, and other compounds were selected as candidates only if their KD values for binding to BCL-2 i-motif were similar to that of A22.
# [3] = molecular target: ILPR promoter i-motif; assay: SPR binding to ILPR promoter i-motif; conditions: MES buffer pH 5.5
# [4] = test system: bEnd.3; assay: MTT cytotoxicity assay, bEnd.3; assay type: cell-based; conditions: BEND3; incubation for 48 h
# [5] = test system: SH-SY5Y cells; assay: JC-1 / Mito-tracker / H2DCFDA / Ca2+ staining in Aβ1-42 induced cell model; assay type: cell-based; conditions: 25 μM Aβ1-42 induced model
# Method: SH-SY5Y cells were plated on 96 well plates. After 24h treatment with or without B14 in 25 μM Aβ1-42 induced cell model, the cells were washed for three times with cold PBS. Then cells were incubated with Hoechst 33342 solution (Sigma, 10 μg/mL) and H2DCFDA probe (10 μM, sigma), as well as Mito-tracker deep red (100 nM, sigma) for 10 min at 37 °C in the dark. All the samples were photographed by using FV3000 (Olympus). SH-SY5Y cells were plated on 6 well plates. After 24h treatment with B14 in 25 μM Aβ1-42 induced cell model, cells were incubated with JC-1 (5 μg/mL, sigma) for 30 min at 37 °C in the dark. Fluorescence detection was carried out by using EVOS FL Auto.
# [6] = test system: Aβ deposition in hippocampus of APP/PS1 mice; assay: Immunofluorescence of hippocampal Aβ deposition; assay type: in vivo; conditions: B14 10, 20, 40 mg/kg i.p. every other day
# Description: (§1) Five months old male APP/PS1 mice, weighing 25–33 g, were purchased from Guangdong Medical Laboratory Animal Center and housed in the Laboratory Animal Center of Sun Yat-sen University (Guangzhou, China) for experimentation. All procedures were approved by the Animal Care and Use Committee of Sun Yat-sen University and complied with legal requirements and national guidelines for the care and maintenance of laboratory animals (Approval No. SYSU-IACUC-2024-002032). The mice were housed in a specific pathogen-free environment with a controlled temperature of 22 ± 1 °C and a 12-h dark/light cycle. The mice were fed with a standard diet, and 30 mice were randomly divided into 6 groups (N = 5). Compound B14 was dissolved in saline and administered at doses of 10, 20, or 40 mg/kg. APP/PS1 male mice were grown until 6 months of age, and then injected intraperitoneally with compound B14 every other day for 60 days. Behavioral experiments were then conducted, and tissue specimens were collected for biochemical analysis.
# [7] = test system: bio-(G2C4)6 (DNA, i motif) GGCCCCGGCCCCGGCCCCGGCCCCGGCCCCGGCCCC; assay: SPR; conditions: K+ 100 mM; 20 mM MES, pH 5.5, 25 °C
# [8] = test system: APP/PS1 transgenic mice; assay: Nissl and H&E staining of hippocampus; assay type: in vivo; conditions: vs model group
# Description: as §1
# The mice were sacrificed, with their brains and organs isolated and embedded in paraffin. The brains and organs were then sectioned into 6 μm thin slices. These slices were subjected to H&E or Nissl staining (Servicebio, Guangzhou, China). The stained sections were subsequently imaged and analyzed by using microscopy.
# [9] = test system: APP/PS1 transgenic mice; assay: Open field test (OFT); assay type: in vivo; conditions: B14 10, 20, 40 mg/kg i.p. every other day
# Description: as §1
# The spatial memory and learning abilities of the mice were assessed using Morris water maze (MWM), novel object recognition (NOR) and nesting experiments (NBT). The anxiety and depressive behaviors were evaluated through the open field test (OFT) and elevated plus maze (EPM). Detailed experimental procedures are provided in the supplementary information. […]
structure (smiles),measurement,setting,value
O=C(CCN1CCOCC1)Nc1ccc2c(c1)c(=O)c1cc(NC(=O)CCN3CCOCC3)ccc1n2-c1ccc2occc2c1 [Compound B14],IC50,[1],> 100 µM
same,Kd,[2],2.13 µM
same,Kd,[3],> 50 µM
same,IC50,[4],> 100 µM
same,intracellular Ca^2+ (Fluo-5AM),[5],could modulate aberrantly metabolized Ca^2+ in model cells in a dose-dependent manner
same,oxidative stress (H2DCFDA) and mitochondrial number (MitoTracker),[5],could attenuate oxidative stress without changing mitochondrial number
same,"red/green fluorescence intensity ratio (JC-1, mitochondrial membrane potential)",[5],could reduce the occurrence of early apoptosis
same,hippocampal Aβ deposition,[6],significantly reduced in a dose-dependent manner
same,KD,[7],33.30 µM
same,hippocampal neuron damage (HE staining),[8],could reverse the damage of hippocampal neurons in mice
same,number of Nissl bodies in CA1-CA4 and DG regions,[8],restored
same,range and duration of activity (OFT),[9],significant improvement in the range and duration of activity
